Data: ChEMBL document CHEMBL2429820, “Synthesis and anticonvulsant activity evaluation of 7-alkoxy-2,4-dihydro-1H-benzo[b][1,2,4]triazolo[4,3-d][1,4]thiazin-1-ones in various murine experimental seizure models” (Med Chem Res, 2013)
Active and inactive are the calls of the source. The calls are words filed in the database; no cut-off is given here.

What was measured:
[1] = Neurotoxicity in ip dosed KunMing mouse assessed as inability of animal to maintain equilibrium on rod for at least 1 min; format: toxicity, organism-based; details: in vivo
Mus musculus [2] = test: Anticonvulsant activity in KunMing mouse assessed as protection against maximal electroshock-induced seizure at 100 mg/kg, ip after 0.5 hrs; format: functional, organism-based; set-up: dose 100 mg/kg
Mus musculus [3] = test: Anticonvulsant activity in KunMing mouse assessed as protection against maximal electroshock-induced seizure at 30 mg/kg, ip after 0.5 hrs; format: functional, organism-based; set-up: dose 30 mg/kg
Mus musculus [4] = test: Anticonvulsant activity in KunMing mouse assessed as protection against maximal electroshock-induced seizure at 15 mg/kg, ip after 0.5 hrs; format: functional, organism-based; set-up: dose 15 mg/kg
Mus musculus [5] = test: Protective index, ratio of TD50 for ip dosed KunMing mouse to ED50 for ip dosed KunMing mouse; format: functional
Mus musculus [6] = test: Anticonvulsant activity in ip dosed KunMing mouse assessed as protection against maximal electroshock-induced seizure after 0.5 hrs; format: functional
Mus musculus [7] = test: Anticonvulsant activity against pentylenetetrazole-induced seizure in KunMing mouse assessed as clonic seizure level at 30 mg/kg, ip administered 30 mins before pentylenetetrazole challenge measured after 30 mins; format: functional; details: route intraperitoneal
Mus musculus [8] = test: Anticonvulsant activity against 3-mercaptopropionic acid-induced seizure in KunMing mouse assessed as clonic seizure level at 30 mg/kg, ip administered 30 mins before 3-mercaptopropionic acid challenge measured after 30 mins; format: functional; details: route intraperitoneal
Mus musculus [9] = test: Anticonvulsant activity against bicuculline-induced seizure in KunMing mouse assessed as lethality at 30 mg/kg, ip administered 30 mins before bicuculline challenge measured after 30 mins; format: functional; details: route intraperitoneal
Mus musculus [10] = test: Anticonvulsant activity against bicuculline-induced seizure in KunMing mouse assessed as tonic seizure level at 30 mg/kg, ip administered 30 mins before bicuculline challenge measured after 30 mins; format: functional; details: route intraperitoneal
Mus musculus [11] = test: Anticonvulsant activity against 3-mercaptopropionic acid-induced seizure in KunMing mouse assessed as tonic seizure level at 30 mg/kg, ip administered 30 mins before 3-mercaptopropionic acid challenge measured after 30 mins; format: functional; details: route intraperitoneal
Mus musculus [12] = test: Anticonvulsant activity against pentylenetetrazole-induced seizure in KunMing mouse assessed as tonic seizure level at 30 mg/kg, ip administered 30 mins before pentylenetetrazole challenge measured after 30 mins; format: functional; details: route intraperitoneal
Mus musculus [13] = test: Anticonvulsant activity against bicuculline-induced seizure in KunMing mouse assessed as clonic seizure level at 30 mg/kg, ip administered 30 mins before bicuculline challenge measured after 30 mins; format: functional; details: route intraperitoneal
Mus musculus [14] = test: Anticonvulsant activity against pentylenetetrazole-induced seizure in KunMing mouse assessed as lethality at 30 mg/kg, ip administered 30 mins before pentylenetetrazole challenge measured after 30 mins; format: functional; details: route intraperitoneal
Mus musculus [15] = test: Anticonvulsant activity in KunMing mouse assessed as protection against maximal electroshock-induced seizure at 7.5 mg/kg, ip after 0.5 hrs; format: functional, organism-based; set-up: dose 7.5 mg/kg
Mus musculus [16] = test: Anticonvulsant activity against 3-mercaptopropionic acid-induced seizure in KunMing mouse assessed as lethality at 30 mg/kg, ip administered 30 mins before 3-mercaptopropionic acid challenge measured after 30 mins; format: functional; details: route intraperitoneal

Compound	TD50 at 1 min [1] [mg/kg]	Activity (Mus musculus [2])	Activity (Mus musculus [3])	PI (Mus musculus [5])	ED50 (Mus musculus [6]) [mg/kg]	also measured
CCCCCCOc1ccc2c(c1)SCc1n[nH]c(=O)n1-2	89.6	Active	Active	11.3	7.9	Activity (Mus musculus [4]): Active
CCCCOc1ccc2c(c1)SCc1n[nH]c(=O)n1-2	118	Active	Active	14.9	7.9	Activity (Mus musculus [4]): Active
CCCCCCOc1ccc2c(c1)CCC(=O)N2				2.4	24	
CCOc1ccc2c(c1)SCc1n[nH]c(=O)n1-2		Active	inactive			
CCCCCOc1ccc2c(c1)SCC(=O)N2	306			8.9	34.1	
O=c1[nH]nc2n1-c1ccc(OCc3ccc(Cl)cc3)cc1SC2						Activity (Mus musculus [4]): inactive
CCCOc1ccc2c(c1)SCc1n[nH]c(=O)n1-2	84.9	Active	Active	7	12.2	
N#Cc1ccccc1COc1ccc2c(c1)SCc1n[nH]c(=O)n1-2		inactive				
O=c1[nH]nc2n1-c1ccc(OCc3ccccc3)cc1SC2	94.7	Active		7.8	12.2	
CCCCCCCCCCCCOc1ccc2c(c1)SCc1n[nH]c(=O)n1-2		inactive				
CCCCCCCCOc1ccc2c(c1)SCc1n[nH]c(=O)n1-2		inactive				
NC(=O)N1c2ccccc2C=Cc2ccccc21 [CARBAMAZEPINE]				6.4	11.8	Activity (Mus musculus [7]): 100%; Activity (Mus musculus [8]): 100%; Activity (Mus musculus [9]): 60%; Activity (Mus musculus [10]): 0%; Activity (Mus musculus [11]): 0%; Activity (Mus musculus [12]): 0%; Activity (Mus musculus [13]): 100%; Activity (Mus musculus [14]): 10%
O=c1[nH]nc2n1-c1ccc(OCc3c(Cl)cccc3Cl)cc1SC2						Activity (Mus musculus [4]): inactive
CCCCCCCCCCCCCCOc1ccc2c(c1)SCc1n[nH]c(=O)n1-2		inactive				
O=c1[nH]nc2n1-c1ccc(OCc3ccccc3F)cc1SC2		Active				Activity (Mus musculus [15]): inactive
CCCCCOc1ccc2c(c1)SCc1n[nH]c(=O)n1-2	81.8	Active	Active	11.5	7.1	Activity (Mus musculus [4]): Active
O=c1[nH]nc2n1-c1ccc(OCc3ccccc3Cl)cc1SC2		inactive				
O=c1[nH]nc2n1-c1ccc(OCc3cccc(Cl)c3)cc1SC2		Active				Activity (Mus musculus [4]): inactive
CCCCCCCOc1ccc2c(c1)SCc1n[nH]c(=O)n1-2						Activity (Mus musculus [15]): inactive
Cc1ccc(COc2ccc3c(c2)SCc2n[nH]c(=O)n2-3)cc1		Active	Active			Activity (Mus musculus [15]): inactive
O=c1[nH]nc2n1-c1ccc(OCc3cccc(C(F)(F)F)c3)cc1SC2			inactive			
O=c1[nH]nc2n1-c1ccc(OCc3ccc(F)cc3)cc1SC2	141	Active	Active	15.4	9.2	Activity (Mus musculus [7]): 100%; Activity (Mus musculus [8]): 100%; Activity (Mus musculus [9]): 30%; Activity (Mus musculus [10]): 10%; Activity (Mus musculus [11]): 0%; Activity (Mus musculus [12]): 10%; Activity (Mus musculus [13]): 90%; Activity (Mus musculus [16]): 60%; Activity (Mus musculus [14]): 80%
O=c1[nH]nc2n1-c1ccc(OCc3cccc(F)c3)cc1SC2		Active				Activity (Mus musculus [15]): inactive
